Our source for the IC50 values is patent publication US20140073634A1 (Institute For Applied Cancer Science/The University of …, priority 2012, published 2014).

One assay deals with 293T-HRE-GFP-luc cells. The experiment in a line: Cell-based reporter assay for IC50 determinations (HRE-luciferase, hypoxia). The following applies: 6 h, 6 hrs hypoxia (1% O2), luminescence. The protocol: Cell-Based Reporter Assay for IC50 Determinations
293T-HRE-GFP-luc cells were routinely maintained in DMEM media (high glucose version with GlutaMAX and HEPES, Gibco, catalog #10564) supplemented with 10% fetal bovine serum and 2 μg/mL puromycin (Invitrogen, catalog #A11138-03) using a humidified incubator (normoxia conditions consisting of 37° C., 5% CO2 and ambient O2).
In preparation for the reporter assay, cells were harvested and resuspended in DMEM media (high glucose version with GlutaMAX and HEPES) supplemented with 10% fetal bovine serum. Cells were inoculated into 384-well white Culturplates (Perkin Elmer catalog #6007680) at a density of 12,000 cells/well in a volume of […]. The microplates were incubated overnight (approximately 17-19 hours) at 37° C. with 5% CO2 and ambient O2. Stock solutions of the test compounds were prepared in DMSO (Sigma, Catalog #D2650) and serially diluted 1:3 using DMSO. Compounds were additionally diluted (1:50) with culturemedium and 10 µL were added per well to the Culturplate. Following a 30 min. incubation under normoxia conditions, the plates were incubated in hypoxia for 6 hrs. (37° C., 5% CO2 and 1% O2). Steadylite Plus (Perkin Elmer, catalog #6016751) was then added ([…]), the plates were mixed on an orbital shaker at room temperature in the dark for 15 min., and luminescence was measured using an Envision plate reader (Perkin Elmer). IC50 values were calculated using a four-parameter logistic curve fit. Results are shown below in Table 2; ND indicates no data.
On the technique in general: A reporter such as luciferase makes a cellular process visible.
For `C=Cc1cccc(Cn2cc(-c3nc(-c4ccc(OC(F)(F)F)cc4)no3)ccc2=O)c1` [Example 52, 5-(3-(4-(Trifluoromethoxy)phenyl)-1,2,4-oxadiazol-5-yl)-1-(3-vinylbenzyl)pyridin-2(1H)-one], the IC50 (in general, the concentration that gives 50% inhibition) is < 0.1 µM. On to `O=c1ccc(-c2nc(-c3ccc(OC(F)(F)F)cc3)no2)cn1Cc1cccc(C(O)CO)c1` (stereo not drawn) [Example 53, 1-(3-(1,2-Dihydroxyethyl)benzyl)-5-(3-(4-(trifluoromethoxy)phenyl)-1,2,4-oxadiazol-5-yl)pyridin-2(1H)-one], for which the 50% inhibitory concentration (IC50) was < 0.1 µM. As for `C=CCOc1cccc(Cn2cc(-c3nc(-c4ccc(OC(F)(F)F)cc4)no3)ccc2=O)c1` [Example 54, 1-(3-(Allyloxy)benzyl)-5-(3-(4-(trifluoromethoxy)phenyl)-1,2,4-oxadiazol-5-yl)pyridin-2(1H)-one], the IC50 is < 0.1 µM. For `O=c1ccc(-c2nc(-c3ccc(OC(F)(F)F)cc3)no2)cn1Cc1cccc(OCC(O)CO)c1` (stereo not drawn) [Example 55, 1-(3-(2,3-Dihydroxypropoxy)benzyl)-5-(3-(4-(trifluoromethoxy)phenyl)-1,2,4-oxadiazol-5-yl)pyridin-2(1H)-one], the IC50 is < 0.1 µM. Turning to `CC(C)=Cc1cccc(Cn2cc(-c3nc(-c4ccc(OC(F)(F)F)cc4)no3)ccc2=O)c1` [Example 56, 1-(3-(2-methylprop-1-enyl)benzyl)-5-(3-(4-(trifluoromethoxy)phenyl)-1,2,4-oxadiazol-5-yl)pyridin-2(1H)-one], the half-inhibitory concentration (IC50) was < 0.1 µM. Still for that read-out and setting: then `CC(C)(O)C(O)c1cccc(Cn2cc(-c3nc(-c4ccc(OC(F)(F)F)cc4)no3)ccc2=O)c1` (stereo not drawn) [Example 57, 1-(3-(1,2-Dihydroxy-2-methylpropyl)benzyl)-5-(3-(4-(trifluoromethoxy)phenyl)-1,2,4-oxadiazol-5-yl)pyridin-2(1H)-one], with < 0.1 µM; and `O=c1ccc(-c2nc(-c3ccc(OC(F)(F)F)cc3)no2)cn1Cc1cccc(N2CCC(O)CC2)c1` [Example 58, 1-(3-(4-Hydroxypiperidin-1-yl)benzyl)-5-(3-(4-(trifluoromethoxy)phenyl)-1,2,4-oxadiazol-5-yl)pyridin-2(1H)-one], with < 0.1 µM; and `O=c1ccc(-c2nc(-c3ccc(OC(F)(F)F)cc3)no2)cn1Cc1cccc(N2CCNCC2)c1` [Example 59, 1-(3-(piperazin-1-yl)benzyl)-5-(3-(4-(trifluoromethoxy)phenyl)-1,2,4-oxadiazol-5-yl)pyridin-2(1H)-one], with < 0.1 µM.

Regarding `O=C(CO)N1CCN(c2cccc(Cn3cc(-c4nc(-c5ccc(OC(F)(F)F)cc5)no4)ccc3=O)c2)CC1` [Example 60], the IC50 was < 0.1 µM.

As to `CS(=O)(=O)N1CCN(c2cccc(Cn3cc(-c4nc(-c5ccc(OC(F)(F)F)cc5)no4)ccc3=O)c2)CC1` [Example 61], the IC50 was < 0.1 µM. With `NCC(O)COc1cccc(Cn2cc(-c3nc(-c4ccc(OC(F)(F)F)cc4)no3)ccc2=O)c1` (stereo not drawn) [Example 62, 1-(3-(3-Amino-2-hydroxypropoxy)benzyl)-5-(3-(4-(trifluoromethoxy)phenyl)-1,2,4-oxadiazol-5-yl)pyridin-2(1H)-one], the IC50 was < 0.1 µM. Regarding `CN1CCN(c2cccc(Cn3cc(-c4nc(-c5ccc(C(F)(F)F)cc5)no4)ccc3=O)c2)CC1` [Example 63, 1-(3-(4-Methylpiperazin-1-yl)benzyl)-5-(3-(4-(trifluoromethyl)phenyl)-1,2,4-oxadiazol-5-yl)pyridin-2(1H)-one], the half-inhibitory concentration (IC50) is < 0.1 µM. Same read-out and setting: for `COCCOc1cccc(Cn2cc(-c3noc(-c4ccc(N5CCCS5(=O)=O)cc4)n3)ccc2=O)c1` [Example 66, 5-(5-(4-(1,1-Dioxidoisothiazolidin-2-yl)phenyl)-1,2,4-oxadiazol-3-yl)-1-(3-(2-methoxyethoxy)benzyl)pyridin-2(1H)-one] the value was 0.1 to 1 µM. Consider `COCCOc1cccc(Cn2cc(-c3noc(-c4ccc(C5CC5)cc4)n3)ccc2=O)c1` [Example 67, 5-(5-(4-Cyclopropylphenyl)-1,2,4-oxadiazol-3-yl)-1-(3-(2-methoxyethoxy)benzyl)pyridin-2(1H)-one], for which the IC50 is < 0.1 µM.

The molecule `COCCOc1cccc(Cn2cc(-c3noc(-c4ccc(C(C)(C)C#N)cc4)n3)ccc2=O)c1` [Example 68, 2-(4-(3-(1-(3-(2-Methoxyethoxy)benzyl)-6-oxo-1,6-dihydropyridin-3-yl)-1,2,4-oxadiazol-5-yl)phenyl)-2-methylpropanenitrile] came in with an IC50 of 0.1 to 1 µM. As to `CS(=O)(=O)CCCOc1cccc(Cn2cc(-c3noc(-c4ccc(OC(F)(F)F)cc4)n3)ccc2=O)c1` [Example 69, 1-(3-(3-(Methylsulfonyl)propoxy)benzyl)-5-(5-(4-(trifluoromethoxy)phenyl)-1,2,4-oxadiazol-3-yl)pyridin-2(1H)-one], the IC50 was < 0.1 µM. On to `COCCOc1cccc(Cn2cc(-c3noc(-c4ccc(C(C)(C)CO)cc4)n3)ccc2=O)c1` [Example 70, 5-(5-(4-(1-Hydroxy-2-methylpropan-2-yl)phenyl)-1,2,4-oxadiazol-3-yl)-1-(3-(2-methoxyethoxy)benzyl)pyridin-2(1H)-one], for which the IC50 is < 0.1 µM.

As to `COCCOc1cccc(Cn2cc(-c3noc(-c4ccc(C5(C(F)(F)F)CC5)cc4)n3)ccc2=O)c1` [Example 71, 1-(3-(2-Methoxyethoxy)benzyl)-5-(5-(4-(1-(trifluoromethyl)cyclopropyl)phenyl)-1,2,4-oxadiazol-3-yl)pyridin-2(1H)-one], the IC50 was < 0.1 µM. On to `COCCOc1cccc(Cn2cc(-c3noc(-c4ccc(C(C)(C)COC)cc4)n3)ccc2=O)c1` [Example 72, 15-(5-(4-(1-Methoxy-2-methylpropan-2-yl)phenyl)-1,2,4-oxadiazol-3-yl)-1-(3-(2-methoxyethoxy)benzyl)pyridin-2(1H)-one], for which the IC50 is < 0.1 µM.

As to `COCCOc1cccc(Cn2cc(-c3noc(-c4ccc(C(C)(C)O)cc4)n3)ccc2=O)c1` [Example 73, 5-(5-(4-(2-Hydroxypropan-2-yl)phenyl)-1,2,4-oxadiazol-3-yl)-1-(3-(2-methoxyethoxy)benzyl)pyridin-2(1H)-one], the IC50 was < 0.1 µM. For `COCCOc1cccc(Cn2cc(-c3noc(-c4ccc(C5CCOCC5)cc4)n3)ccc2=O)c1` [Example 74, 1-(3-(2-Methoxyethoxy)benzyl)-5-(5-(4-(tetrahydro-2H-pyran-4-yl)phenyl)-1,2,4-oxadiazol-3-yl)pyridin-2(1H)-one], the IC50 is < 0.1 µM. For the molecule `COCCOc1cccc(Cn2cc(-c3noc(-c4ccc(C5CCSCC5)cc4)n3)ccc2=O)c1` [Example 75, 1-(3-(2-Methoxyethoxy)benzyl)-5-(5-(4-(tetrahydro-2H-thiopyran-4-yl)phenyl)-1,2,4-oxadiazol-3-yl)pyridin-2(1H)-one], the IC50 was < 0.1 µM. As for `CC(C)Oc1ccc(-c2nc(-c3ccc(=O)n(Cc4cccc(C(C)(C)O)c4)c3)no2)cc1` [Example 76, 1-(3-(2-Hydroxypropan-2-yl)benzyl)-5-(5-(4-isopropoxyphenyl)-1,2,4-oxadiazol-3-yl)pyridin-2(1H)-one], the IC50 was < 0.1 µM.

Still in this assay, the particulars now being: 6 hrs hypoxia (1% O2), luminescence.
On to `COCCOc1cccc(Cn2cc(-c3noc(-c4ccc(C(F)(F)F)cc4)n3)ccc2=O)c1` [Example 65, 1-(3-(2-Methoxyethoxy)benzyl)-5-(5-(4-(trifluoromethyl)phenyl)-1,2,4-oxadiazol-3-yl)pyridin-2(1H)-one], for which the concentration for half-maximal inhibition (IC50) was 0.1 to 1 µM.
